Literature values, collected in patent US20190000834A1, “INJECTABLE COMPOSITION AND A METHOD OF TREATMENT OF THE PHYSICAL ADDICTION” (VERITA RESEARCH PTE LTD, priority 2015, published 2019).

Key:
[1] = system: amphetamine dependence; settings: Naltrexone 50 mg along with CBT, 12 weeks
[2] = system: amphetamine dependent patients; settings: naltrexone 50 mg
[3] = system: amphetamine dependence; settings: outpatients
[4] = system: methamphetamine self-administering animals

In the case of `O=C1CC[C@@]2(O)[C@H]3Cc4ccc(O)c5c4[C@@]2(CCN3CC2CC2)[C@H]1O5` [Naltrexone, (4R,4aS,7aR,12bS)-3-(cyclopropylmethyl)-4a,9-dihydroxy-2,4,5,6,7a,13-hexahydro-1H-4,12-methanobenzofuro [3,2-e] isoquinoline-7-one], the tolerability [1] is listed as “well tolerated”, the craving [2] is listed as “significantly blocked” and the “subjective effects produced by dexamphetamine” value [2] is listed as “significantly attenuated”. The amphetamine use [3] was “effective in reducing amphetamine use” and the “cue- and drug-induced methamphetamine seeking” value [4] was “attenuated cue—but not drug-induced methamphetamine”.
